What was measured:
[1] = biological target: Alpha-glucosidase (Saccharomyces cerevisiae S288c) (UniProt P53341+P38158+P07265); experiment: Inhibition of yeast alpha-glucosidase assessed as reduction of p-nitrophenol release using p-nitrophenyl glycoside as substrate at 1000 uM by spectrophotometric analysis relative to control; type: protein assay
Oryza sativa = experiment: Inhibition of rice alpha-glucosidase assessed as reduction of p-nitrophenol release using p-nitrophenyl glycoside as substrate at 1000 uM by spectrophotometric analysis relative to control
Rattus norvegicus = species on record: Rattus norvegicus; experiment: Inhibition of rat intestinal maltase assessed as D-glucose release using maltose as substrate at pH 6.8 at 1000 uM by colorimetric method relative to control
[2] = Inhibition of almond beta-glucosidase assessed as reduction of p-nitrophenol release using p-nitrophenyl glycoside as substrate by spectrophotometric analysis; set-up: species or system Prunus dulcis
[3] = Inhibition of bovine liver beta-glucosidase assessed as reduction of p-nitrophenol release using p-nitrophenyl glycoside as substrate by spectrophotometric analysis; set-up: species or system Bos taurus
[4] = Inhibition of human lysosomal beta-glucosidase assessed as reduction of p-nitrophenol release using p-nitrophenyl glycoside as substrate by spectrophotometric analysis
[5] = biological target: Alpha-galactosidase (Coffea arabica) (UniProt Q42656); experiment: Inhibition of coffee beans alpha-galactosidase assessed as reduction of p-nitrophenol release using p-nitrophenyl glycoside as substrate at 1000 uM by spectrophotometric analysis relative to control
Sequence of Alpha-galactosidase (Coffea arabica) (Q42656 16-378 limits assumed): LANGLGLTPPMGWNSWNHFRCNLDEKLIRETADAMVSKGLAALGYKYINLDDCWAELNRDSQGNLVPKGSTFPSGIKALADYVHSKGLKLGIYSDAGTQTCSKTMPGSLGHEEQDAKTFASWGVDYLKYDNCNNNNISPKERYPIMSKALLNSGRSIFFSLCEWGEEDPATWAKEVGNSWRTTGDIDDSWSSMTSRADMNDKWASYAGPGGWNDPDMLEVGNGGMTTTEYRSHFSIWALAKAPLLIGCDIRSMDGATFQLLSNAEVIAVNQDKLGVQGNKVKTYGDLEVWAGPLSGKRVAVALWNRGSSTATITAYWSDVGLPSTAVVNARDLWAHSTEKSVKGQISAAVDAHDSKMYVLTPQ

[6] = Inhibition of bovine liver beta-galactosidase assessed as reduction of p-nitrophenol release using p-nitrophenyl glycoside as substrate by spectrophotometric analysis; set-up: species or system Bos taurus
[7] = biological target: T1, Alpha-mannosidase (Canavalia ensiformis) (UniProt C0HJB3); experiment: Inhibition of jack bean alpha-mannosidase assessed as reduction of p-nitrophenol release using p-nitrophenyl glycoside as substrate at 1000 uM by spectrophotometric analysis relative to control
T1 sequence (whole entry): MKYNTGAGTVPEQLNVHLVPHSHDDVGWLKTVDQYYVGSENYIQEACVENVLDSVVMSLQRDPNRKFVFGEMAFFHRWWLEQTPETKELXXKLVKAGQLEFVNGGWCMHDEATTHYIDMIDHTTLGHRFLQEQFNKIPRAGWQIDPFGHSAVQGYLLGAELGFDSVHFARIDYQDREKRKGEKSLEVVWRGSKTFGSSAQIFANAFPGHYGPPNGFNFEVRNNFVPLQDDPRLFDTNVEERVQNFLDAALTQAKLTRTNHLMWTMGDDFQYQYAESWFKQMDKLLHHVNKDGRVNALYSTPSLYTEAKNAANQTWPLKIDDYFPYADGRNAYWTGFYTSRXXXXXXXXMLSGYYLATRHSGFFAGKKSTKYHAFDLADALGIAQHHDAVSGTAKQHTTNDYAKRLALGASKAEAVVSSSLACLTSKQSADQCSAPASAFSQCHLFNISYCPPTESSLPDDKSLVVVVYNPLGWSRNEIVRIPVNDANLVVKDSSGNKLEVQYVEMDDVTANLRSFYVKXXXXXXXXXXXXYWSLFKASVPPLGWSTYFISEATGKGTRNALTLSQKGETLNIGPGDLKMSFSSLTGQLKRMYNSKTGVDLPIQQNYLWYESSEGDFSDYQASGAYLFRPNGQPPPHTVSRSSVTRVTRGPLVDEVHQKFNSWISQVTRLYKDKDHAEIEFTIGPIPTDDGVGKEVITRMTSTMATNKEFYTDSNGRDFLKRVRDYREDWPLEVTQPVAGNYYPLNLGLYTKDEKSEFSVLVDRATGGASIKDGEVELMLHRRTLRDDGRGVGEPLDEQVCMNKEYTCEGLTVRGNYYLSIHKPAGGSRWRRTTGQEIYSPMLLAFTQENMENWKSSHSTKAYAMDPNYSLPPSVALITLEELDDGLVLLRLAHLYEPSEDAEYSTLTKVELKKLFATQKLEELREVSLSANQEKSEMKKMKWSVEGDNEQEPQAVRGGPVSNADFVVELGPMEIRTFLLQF

[8] = Inhibition of snail beta-mannosidase assessed as reduction of p-nitrophenol release using p-nitrophenyl glycoside as substrate by spectrophotometric analysis; set-up: species or system Helix pomatia
[9] = biological target: T2, Tissue alpha-L-fucosidase (Bos taurus) (UniProt Q2KIM0); experiment: Inhibition of bovine kidney alpha-L-fucosidase assessed as reduction of p-nitrophenol release using p-nitrophenyl glycoside as substrate at 1000 uM by spectrophotometric analysis relative to control
T2 sequence (whole entry): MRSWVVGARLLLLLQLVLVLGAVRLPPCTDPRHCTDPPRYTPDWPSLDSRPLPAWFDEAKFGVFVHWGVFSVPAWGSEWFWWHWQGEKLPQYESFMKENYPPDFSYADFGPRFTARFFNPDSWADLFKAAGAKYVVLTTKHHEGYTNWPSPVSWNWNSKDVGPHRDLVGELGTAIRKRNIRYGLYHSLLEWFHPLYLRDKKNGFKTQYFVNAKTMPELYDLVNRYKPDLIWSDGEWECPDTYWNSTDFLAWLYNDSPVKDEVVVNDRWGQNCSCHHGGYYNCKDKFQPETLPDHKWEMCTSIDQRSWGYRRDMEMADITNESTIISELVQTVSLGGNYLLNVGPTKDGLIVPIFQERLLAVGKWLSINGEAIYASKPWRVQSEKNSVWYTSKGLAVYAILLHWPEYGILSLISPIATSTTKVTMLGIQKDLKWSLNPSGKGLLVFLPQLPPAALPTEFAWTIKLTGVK

Sus scrofa = species on record: Sus scrofa; experiment: Inhibition of porcine kidney alpha/alpha-trehalase assessed as reduction of p-nitrophenol release using p-nitrophenyl glycoside as substrate at 1000 uM by spectrophotometric analysis relative to control
[10] = Inhibition of Aspergillus niger amyloglucosidase assessed as reduction of p-nitrophenol release using p-nitrophenyl-glycoside as substrate by spectrophotometric analysis
Penicillium decumbens = experiment: Inhibition of Penicillium decumbens alpha-L-rhamnosidase assessed as reduction of p-nitrophenol release using p-nitrophenyl-glycoside as substrate at 1000 uM by spectrophotometric analysis relative to control
Beta-glucuronidase = Beta-glucuronidase (Escherichia coli (strain K12), UniProt P05804); experiment: Inhibition of Escherichia coli beta-glucuronidase assessed as reduction of p-nitrophenol release using p-nitrophenyl-glycoside as substrate by spectrophotometric analysis
Sequence of Beta-glucuronidase (P05804 whole entry): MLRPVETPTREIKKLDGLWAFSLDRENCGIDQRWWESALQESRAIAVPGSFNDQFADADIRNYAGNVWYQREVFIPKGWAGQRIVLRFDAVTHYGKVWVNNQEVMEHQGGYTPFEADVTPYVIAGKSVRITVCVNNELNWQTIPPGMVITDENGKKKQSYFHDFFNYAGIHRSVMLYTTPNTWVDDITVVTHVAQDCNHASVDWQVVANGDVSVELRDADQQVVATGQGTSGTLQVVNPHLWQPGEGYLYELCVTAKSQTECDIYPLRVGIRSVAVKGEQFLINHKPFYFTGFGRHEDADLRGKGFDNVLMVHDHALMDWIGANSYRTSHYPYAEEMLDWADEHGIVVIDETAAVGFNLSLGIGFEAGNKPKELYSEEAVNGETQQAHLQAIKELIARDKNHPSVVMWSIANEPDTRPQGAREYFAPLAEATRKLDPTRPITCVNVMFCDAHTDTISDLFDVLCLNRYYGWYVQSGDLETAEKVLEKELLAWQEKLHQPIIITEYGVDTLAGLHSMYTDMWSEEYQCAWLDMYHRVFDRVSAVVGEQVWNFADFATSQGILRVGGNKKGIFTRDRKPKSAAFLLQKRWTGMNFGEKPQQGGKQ

Bos taurus [11] = species on record: Bos taurus; experiment: Inhibition of bovine liver beta-glucuronidase assessed as reduction of p-nitrophenol release using p-nitrophenyl-glycoside as substrate at 1000 uM by spectrophotometric analysis relative to control
[12] = Inhibition of rice alpha-glucosidase assessed as reduction of p-nitrophenol release using p-nitrophenyl glycoside as substrate by spectrophotometric analysis; set-up: species or system Oryza sativa
[13] = Inhibition of rat intestinal maltase assessed as D-glucose release using maltose as substrate at pH 6.8 by colorimetric method
Prunus dulcis = experiment: Inhibition of almond beta-glucosidase assessed as reduction of p-nitrophenol release using p-nitrophenyl glycoside as substrate at 1000 uM by spectrophotometric analysis relative to control
Bos taurus [14] = species on record: Bos taurus; experiment: Inhibition of bovine liver beta-glucosidase assessed as reduction of p-nitrophenol release using p-nitrophenyl glycoside as substrate at 1000 uM by spectrophotometric analysis relative to control
Helix pomatia = experiment: Inhibition of snail beta-mannosidase assessed as reduction of p-nitrophenol release using p-nitrophenyl glycoside as substrate at 1000 uM by spectrophotometric analysis relative to control
Aspergillus niger = experiment: Inhibition of Aspergillus niger amyloglucosidase assessed as reduction of p-nitrophenol release using p-nitrophenyl-glycoside as substrate at 1000 uM by spectrophotometric analysis relative to control
[15] = biological target: Beta-glucuronidase (Escherichia coli (strain K12)) (UniProt P05804); experiment: Inhibition of Escherichia coli beta-glucuronidase assessed as reduction of p-nitrophenol release using p-nitrophenyl-glycoside as substrate at 1000 uM by spectrophotometric analysis relative to control
Sequence of Beta-glucuronidase (Escherichia coli (strain K12)) (P05804 whole entry, looked up): as the sequence (P05804 whole entry) above

Alpha-glucosidase = Alpha-glucosidase (Saccharomyces cerevisiae S288c, UniProt P53341+P38158+P07265); experiment: Inhibition of yeast alpha-glucosidase assessed as reduction of p-nitrophenol release using p-nitrophenyl glycoside as substrate by spectrophotometric analysis; type: protein assay

| Compound | inhibition [1] [%] | inhibition (Oryza sativa) [%] | inhibition (Rattus norvegicus) [%] | IC50 [2] [µM] | IC50 [3] [µM] | IC50 [4] [µM] | inhibition [5] [%] | IC50 [6] [µM] | inhibition [7] [%] | IC50 [8] [µM] | inhibition [9] [%] | inhibition (Sus scrofa) [%] | IC50 [10] [µM] | inhibition (Penicillium decumbens) [%] | IC50 (Beta-glucuronidase) [µM] | inhibition (Bos taurus [11]) [%] | IC50 [12] [µM] | IC50 [13] [µM] | IC50 (Alpha-glucosidase) [µM] | further results |
| --- | --- | --- | --- | --- | --- | --- | --- | --- | --- | --- | --- | --- | --- | --- | --- | --- | --- | --- | --- | --- |
| Cc1ccc(CCCCCC[C@@H](O)[C@H]2N[C@H](CO)[C@@H](O)[C@@H]2O)cc1 | 23.5 | 15 | 10.5 | 0.082 | 0.003 | 1.1 | 0.9 | 0.002 | 5.9 | 32 | 0 | 0 | 23 | 7 | 13 | 0 | – | – | – | – |
| O=C1CCCC=C1CCCCCCC[C@H]1N[C@H](CO)[C@@H](O)[C@@H]1O | – | – | – | 9.8 | 0.12 | – | 19.6 | 0.03 | 15.1 | 282 | 16.8 | 0.8 | 30 | 35.1 | 3.3 | 46.1 | 119 | 66.6 | 21.6 | – |
| Cl.OC[C@H]1N[C@H]([C@H](O)CCCCCCc2ccc(F)cc2)[C@@H](O)[C@@H]1O | – | 10.2 | 24.2 | 0.15 | 0.009 | 3.3 | 8.6 | 0.005 | 13.9 | 20 | – | 0 | 30 | 4.1 | 36 | 7.1 | – | – | 83 | – |
| OC[C@H]1N[C@H](CCCCCCCc2ccccc2)[C@@H](O)[C@@H]1O | – | – | – | 10 | 0.12 | – | 5 | 0.021 | 8.4 | 375 | 7.9 | 10.7 | 36 | 43.9 | 97 | 9.8 | 6.3 | 1.6 | 33 | – |
| Cl.OC[C@H]1N[C@H]([C@H](O)CCCCCCc2ccc(F)c(F)c2)[C@@H](O)[C@@H]1O | – | 43.4 | 42.5 | 0.53 | 0.007 | 2.7 | 17.2 | 0.004 | 16.6 | 16 | – | 1.4 | 11 | 27 | 21 | 4.3 | – | – | 87 | – |
| OC[C@H]1N[C@H]([C@H](O)CCCCCCc2ccc(Cl)cc2)[C@@H](O)[C@@H]1O | 42.3 | 8.9 | 18.2 | 0.12 | 0.005 | 2.1 | 0 | 0.003 | 4.5 | 37 | 0.6 | 6 | 32 | 1.3 | 41 | 0 | – | – | – | – |

Continued, in another order:

| inhibition [1] [%] | inhibition (Oryza sativa) [%] | inhibition (Rattus norvegicus) [%] | IC50 [2] [µM] | IC50 [3] [µM] | IC50 [4] [µM] | inhibition [5] [%] | IC50 [6] [µM] | inhibition [7] [%] | IC50 [8] [µM] | inhibition [9] [%] | inhibition (Sus scrofa) [%] | IC50 [10] [µM] | inhibition (Penicillium decumbens) [%] | IC50 (Beta-glucuronidase) [µM] | inhibition (Bos taurus [11]) [%] | IC50 [12] [µM] | IC50 [13] [µM] | IC50 (Alpha-glucosidase) [µM] | Compound | further results |
| --- | --- | --- | --- | --- | --- | --- | --- | --- | --- | --- | --- | --- | --- | --- | --- | --- | --- | --- | --- | --- |
| 11.4 | – | – | – | – | 6.3 | 1 | 75 | 0 | – | 0 | 0 | – | 4.6 | – | 18.4 | 21 | 22 | – | CC(C)(C)c1ccc(CCCCCC[C@@H](O)[C@@H]2N[C@@H](CO)[C@H](O)[C@H]2O)cc1 | inhibition (Prunus dulcis): 21.8%; inhibition (Bos taurus [14]): 40%; inhibition (Helix pomatia): 0.8%; inhibition (Aspergillus niger): 8.7%; inhibition [15]: 23.5% |
| 9.6 | – | – | – | 7.7 | 32 | 2.6 | 3.9 | 0.8 | – | 0 | 0.9 | – | 4.2 | – | 0 | 0.86 | 0.65 | – | CC(C)(C)c1ccc(CCCCCC[C@H](O)[C@@H]2N[C@@H](CO)[C@H](O)[C@H]2O)cc1 | inhibition (Prunus dulcis): 44.7%; inhibition (Helix pomatia): 0%; inhibition (Aspergillus niger): 7.1%; inhibition [15]: 15.5% |
| 27.6 | 48.6 | 14.1 | 0.36 | 0.05 | 3.2 | 0.9 | 0.014 | 0 | 96 | 0 | 0 | 63 | 6.2 | 23 | 0 | – | – | – | CC(C)(C)c1ccc(CCCCCC[C@H](O)[C@H]2N[C@H](CO)[C@@H](O)[C@@H]2O)cc1 | – |
| – | 36.6 | 48.7 | 0.064 | 0.004 | 0.81 | 5.5 | 0.002 | 8.7 | 14 | – | 2.3 | 16 | 4.8 | 2.9 | 4.3 | – | – | 57 | CC(C)(C)c1ccc(CCCCCC[C@@H](O)[C@H]2N[C@H](CO)[C@@H](O)[C@@H]2O)cc1.Cl | – |
